# Assay results from ChEMBL document CHEMBL3091367, “Synthesis and evaluation of the apoptosis inducing and CT DNA interaction properties of a series of 4β-carbamoyl 4'-O-demethylepipodophyllotoxins” (Eur J Med Chem, 2013).
# The source made the active and inactive calls. The calls are words filed in the database; no cut-off is given here.
# What was measured:
# HL-60 = test: Cytotoxicity against human HL60 cells after 48 hrs by cell counting kit-8 assay; format: functional, cell-based; details: HL-60, 48 h
# HeLa [1] = test: Cytotoxicity against human HeLa cells after 48 hrs by MTT assay; format: functional, cell-based
# A549 = test: Cytotoxicity against human A549 cells after 48 hrs by MTT assay; format: functional, cell-based; details: A549, 48 h
# [2] = Cytotoxicity against human HCT8 cells after 48 hrs by MTT assay; format: functional, cell-based; details: HCT-8, 48 h
# HeLa [3] = test: Induction of apoptosis in human HeLa cells assessed as upregulation of p53 protein expression at 5 uM after 1 to 24 hrs by Western blotting analysis; format: functional, cell-based
# HeLa [4] = test: Cell cycle arrest in human HeLa cells assessed as accumulation at sub-G1 phase at 5 uM after 12 hrs by propidium iodide staining-based FACS flow cytometric analysis (reference value: 1.8%); format: functional
# HeLa [5] = test: Cell cycle arrest in human HeLa cells assessed as accumulation at S phase at 10 uM by propidium iodide staining-based FACS flow cytometric analysis (reference value: 16.3%); format: functional
# HeLa [6] = test: Cell cycle arrest in human HeLa cells assessed as accumulation at G2/M phase at 0.5 uM by propidium iodide staining-based FACS flow cytometric analysis (reference value: 15.0%); format: functional
# HeLa [7] = test: Cell cycle arrest in human HeLa cells assessed as accumulation at G2/M phase at 5 uM by propidium iodide staining-based FACS flow cytometric analysis (reference value: 15.0%); format: functional
# HeLa [8] = test: Cell cycle arrest in human HeLa cells assessed as accumulation at G1 phase at 10 uM by propidium iodide staining-based FACS flow cytometric analysis (reference value: 54.7%); format: functional
# HeLa [9] = test: Cell cycle arrest in human HeLa cells assessed as accumulation at sub-G1 phase at 5 uM after 24 hrs by propidium iodide staining-based FACS flow cytometric analysis (reference value: 1.8%); format: functional
# HeLa [10] = test: Induction of apoptosis in human HeLa cells assessed as upregulation of Bax protein expression at 5 uM by Western blotting analysis; format: functional, cell-based; details: TDE = time-dependent effect
# HeLa [11] = test: Cell cycle arrest in human HeLa cells assessed as accumulation at G1 phase at 5 uM by propidium iodide staining-based FACS flow cytometric analysis (reference value: 54.7%); format: functional
# HeLa [12] = test: Cell cycle arrest in human HeLa cells assessed as accumulation at sub-G1 phase by propidium iodide staining-based FACS flow cytometric analysis; format: functional
# HeLa [13] = test: Cell cycle arrest in human HeLa cells assessed as accumulation at G2/M phase at 5 uM after 24 hrs by propidium iodide staining-based FACS flow cytometric analysis (reference value: 22.7%); format: functional
# DNA [14] = test: Binding affinity to calf thymus DNA assessed as increase in complex fluorescence using 1 to 6 uM of DNA at 1 uM after 5 mins by fluorescence assay; format: nucleic-acid assay; details: Bos taurus
# HeLa [15] = test: Cell cycle arrest in human HeLa cells assessed as accumulation at sub-G1 phase at 5 uM by propidium iodide staining-based FACS flow cytometric analysis (reference value: 4.4%); format: functional
# HeLa [16] = test: Cell cycle arrest in human HeLa cells assessed as accumulation at S phase at 5 uM after 12 hrs by propidium iodide staining-based FACS flow cytometric analysis (reference value: 9.0%); format: functional
# HeLa [17] = test: Cell cycle arrest in human HeLa cells assessed as accumulation at sub-G1 phase at 10 uM by propidium iodide staining-based FACS flow cytometric analysis (reference value: 4.4%); format: functional
# HeLa [18] = test: Cell cycle arrest in human HeLa cells assessed as accumulation at S phase at 5 uM after 24 hrs by propidium iodide staining-based FACS flow cytometric analysis (reference value: 9.0%); format: functional
# HeLa [19] = test: Cell cycle arrest in human HeLa cells assessed as accumulation at G1 phase at 5 uM after 24 hrs by propidium iodide staining-based FACS flow cytometric analysis (reference value: 57.2%); format: functional
# HeLa [20] = test: Cell cycle arrest in human HeLa cells assessed as accumulation at G1 phase at 5 uM after 12 hrs by propidium iodide staining-based FACS flow cytometric analysis (reference value: 57.2%); format: functional
# HeLa [21] = test: Cell cycle arrest in human HeLa cells assessed as accumulation at G2/M phase at 10 uM by propidium iodide staining-based FACS flow cytometric analysis (reference value: 15.0%); format: functional
# HeLa [22] = test: Induction of apoptosis in human HeLa cells assessed as upregulation of p53 protein expression at 5 uM by Western blotting analysis; format: functional, cell-based; details: TDE = time-dependent effect
# HeLa [23] = test: Induction of apoptosis in human HeLa cells assessed as upregulation of caspase-3 protein expression at 5 uM after 1 to 24 hrs by Western blotting analysis; format: functional, cell-based
# HeLa [24] = test: Cell cycle arrest in human HeLa cells assessed as accumulation at G2/M phase at 5 uM after 12 hrs by propidium iodide staining-based FACS flow cytometric analysis (reference value: 22.7%); format: functional
# HeLa [25] = test: Induction of apoptosis in human HeLa cells assessed as upregulation of caspase-3 protein expression at 5 uM by Western blotting analysis; format: functional, cell-based; details: TDE = time-dependent effect
# HeLa [26] = test: Induction of apoptosis in human HeLa cells assessed as upregulation of Bax protein expression at 5 uM after 1 to 24 hrs by Western blotting analysis; format: functional, cell-based
# HeLa [27] = test: Cell cycle arrest in human HeLa cells assessed as accumulation at S phase at 0.5 uM by propidium iodide staining-based FACS flow cytometric analysis (reference value: 16.3%); format: functional
# HeLa [28] = test: Cell cycle arrest in human HeLa cells assessed as accumulation at S phase at 5 uM by propidium iodide staining-based FACS flow cytometric analysis (reference value: 16.3%); format: functional
# HeLa [29] = test: Cell cycle arrest in human HeLa cells assessed as accumulation at sub-G1 phase at 0.5 uM by propidium iodide staining-based FACS flow cytometric analysis (reference value: 4.4%); format: functional
# DNA [30] = test: Binding affinity to calf thymus DNA assessed as change in DNA conformation from B-form to C-form at 5 to 40 ug/ml after 24 hrs by circular dichorism spectroscopy; format: nucleic-acid assay; details: Bos taurus
# HeLa [31] = test: Cell cycle arrest in human HeLa cells assessed as accumulation at G1 phase at 0.5 uM by propidium iodide staining-based FACS flow cytometric analysis (reference value: 54.7%); format: functional
smiles,measurement,setting,value
CCCNC(=O)O[C@@H]1c2cc3c(cc2[C@@H](c2cc(OC)c(O)c(OC)c2)[C@H]2C(=O)OC[C@@H]21)OCO3,IC50,HL-60,90 nM
same,IC50,HeLa [1],13200 nM
same,IC50,A549,8830 nM
same,IC50,[2],185 nM
COc1cc([C@@H]2c3cc4c(cc3[C@@H](OC(=O)NC3CCCCC3)[C@H]3COC(=O)[C@H]23)OCO4)cc(OC)c1O,IC50,HL-60,270 nM
same,IC50,HeLa [1],5400 nM
same,IC50,A549,26100 nM
same,IC50,[2],1240 nM
COc1cc([C@@H]2c3cc4c(cc3[C@@H](OC(=O)N3CCOCC3)[C@H]3COC(=O)[C@H]23)OCO4)cc(OC)c1O,IC50,HL-60,10 nM
same,IC50,HeLa [1],8590 nM
same,IC50,A549,8550 nM
same,IC50,[2],150 nM
COc1cc([C@@H]2c3cc4c(cc3[C@@H](OC(=O)N[C@H](C(=O)N3CCN(c5ccc([N+](=O)[O-])cc5)CC3)C(C)C)[C@H]3COC(=O)[C@H]23)OCO4)cc(OC)c1O,IC50,HL-60,260 nM
same,IC50,HeLa [1],> 100000 nM
same,IC50,A549,8320 nM
same,IC50,[2],10 nM
COc1cc([C@@H]2c3cc4c(cc3[C@@H](OC(=O)N3CCN(c5ccc([N+](=O)[O-])cc5)CC3)[C@H]3COC(=O)[C@H]23)OCO4)cc(OC)c1O,IC50,HL-60,170 nM
same,IC50,HeLa [1],74 nM
same,Activity,HeLa [3],Active
same,Activity,HeLa [4],4.1%
same,Activity,HeLa [5],13.1%
same,IC50,A549,1670 nM
same,Activity,HeLa [6],20.5%
same,Activity,HeLa [7],22.5%
same,Activity,HeLa [8],26%
same,Activity,HeLa [9],11.1%
same,Activity,HeLa [10],tde
same,Activity,HeLa [11],33.9%
same,Activity,HeLa [12],Dose-dependent effect
same,Activity,HeLa [13],38.1%
same,Activity,DNA [14],Active
same,Activity,HeLa [15],23%
same,Activity,HeLa [16],10.2%
same,Activity,HeLa [17],24.7%
same,Activity,HeLa [18],10.2%
same,Activity,HeLa [19],33.3%
same,IC50,[2],< 10 nM
same,Activity,HeLa [20],43.8%
same,Activity,HeLa [21],29.1%
same,Activity,HeLa [22],tde
same,Activity,HeLa [23],Active
same,Activity,HeLa [24],29.9%
same,Activity,HeLa [25],tde
same,Activity,HeLa [26],Active
same,Activity,HeLa [27],9.8%
same,Activity,HeLa [28],10.2%
same,Activity,HeLa [29],21.7%
same,Activity,DNA [30],Active
same,Activity,HeLa [31],35.9%
COc1cc([C@@H]2c3cc4c(cc3[C@@H](OC(=O)N[C@@H](CCSC)C(=O)N3CCN(c5ccc([N+](=O)[O-])cc5)CC3)[C@H]3COC(=O)[C@H]23)OCO4)cc(OC)c1O,IC50,HL-60,10 nM
same,IC50,HeLa [1],49400 nM
same,IC50,A549,> 100000 nM
same,IC50,[2],570 nM
COc1cc([C@@H]2c3cc4c(cc3[C@@H](OC(=O)NC3CCCC3)[C@H]3COC(=O)[C@H]23)OCO4)cc(OC)c1O,IC50,HL-60,210 nM
same,IC50,HeLa [1],3750 nM
same,IC50,A549,4540 nM
same,IC50,[2],330 nM
COc1cc([C@@H]2c3cc4c(cc3[C@@H](OC(=O)N[C@H](CCSC)C(=O)N3CCN(c5ccc([N+](=O)[O-])cc5)CC3)[C@H]3COC(=O)[C@H]23)OCO4)cc(OC)c1O,IC50,HL-60,20 nM
same,IC50,HeLa [1],> 100000 nM
same,IC50,A549,> 100000 nM
same,IC50,[2],850 nM
COc1cc([C@@H]2c3cc4c(cc3[C@@H](OC(=O)NC3CC3)[C@H]3COC(=O)[C@H]23)OCO4)cc(OC)c1O,IC50,HL-60,160 nM
same,IC50,HeLa [1],10800 nM
same,IC50,A549,18300 nM
same,IC50,[2],80 nM
COc1cc([C@@H]2c3cc4c(cc3[C@@H](OC(=O)N3CCOCC3)[C@H]3COC(=O)[C@H]23)OCO4)cc(OC)c1OC(=O)N1CCOCC1,IC50,HL-60,< 10 nM
same,IC50,HeLa [1],> 100000 nM
same,IC50,A549,> 100000 nM
same,IC50,[2],130 nM
COc1cc([C@@H]2c3cc4c(cc3[C@@H](OC(=O)N3CCN(C5CCCC5)CC3)[C@H]3COC(=O)[C@H]23)OCO4)cc(OC)c1O,IC50,HL-60,< 10 nM
same,IC50,HeLa [1],4400 nM
same,IC50,A549,3890 nM
same,IC50,[2],1620 nM
COc1cc([C@@H]2c3cc4c(cc3[C@@H](O[C@@H]3O[C@@H]5CO[C@@H](C)O[C@H]5[C@H](O)[C@H]3O)[C@H]3COC(=O)[C@H]23)OCO4)cc(OC)c1O [ETOPOSIDE],IC50,HeLa [1],2910 nM
COc1cc([C@@H]2c3cc4c(cc3[C@@H](OC(=O)N[C@@H](Cc3ccccc3)C(=O)N3CCN(c5ccc([N+](=O)[O-])cc5)CC3)[C@H]3COC(=O)[C@H]23)OCO4)cc(OC)c1O,IC50,HL-60,30 nM
same,IC50,HeLa [1],4130 nM
same,IC50,A549,9550 nM
same,IC50,[2],10 nM
COc1cc([C@@H]2c3cc4c(cc3[C@@H](OC(=O)N3CCN(C)CC3)[C@H]3COC(=O)[C@H]23)OCO4)cc(OC)c1O,IC50,HL-60,190 nM
same,IC50,HeLa [1],20000 nM
same,IC50,A549,4180 nM
same,IC50,[2],30 nM
COc1cc([C@@H]2c3cc4c(cc3[C@@H](OC(=O)N3CCN(c5ccc([N+](=O)[O-])cc5)CC3)[C@H]3COC(=O)[C@H]23)OCO4)cc(OC)c1OC(=O)N1CCN(c2ccc([N+](=O)[O-])cc2)CC1,IC50,HL-60,350 nM
same,IC50,A549,56900 nM
same,IC50,[2],10 nM
COc1cc([C@@H]2c3cc4c(cc3[C@@H](OC(=O)N3CCN(c5ccc(F)cc5)CC3)[C@H]3COC(=O)[C@H]23)OCO4)cc(OC)c1O,IC50,HL-60,330 nM
same,IC50,HeLa [1],1580 nM
same,IC50,A549,5240 nM
same,IC50,[2],10 nM
COc1cc([C@@H]2c3cc4c(cc3[C@@H](OC(=O)N[C@H](Cc3ccccc3)C(=O)N3CCN(c5ccc([N+](=O)[O-])cc5)CC3)[C@H]3COC(=O)[C@H]23)OCO4)cc(OC)c1O,IC50,HL-60,40 nM
same,IC50,HeLa [1],28600 nM
same,IC50,A549,> 100000 nM
same,IC50,[2],70 nM
COc1cc([C@@H]2c3cc4c(cc3[C@@H](OC(=O)N[C@@H](C)C(=O)N3CCN(c5ccc([N+](=O)[O-])cc5)CC3)[C@H]3COC(=O)[C@H]23)OCO4)cc(OC)c1O,IC50,HL-60,130 nM
same,IC50,HeLa [1],> 100000 nM
same,IC50,A549,19000 nM
same,IC50,[2],710 nM
